Results on 15 compounds are retold here after US20260176262A1, “KRAS INHIBITORS, PREPARATION METHOD THEREFOR, AND PHARMACEUTICAL USE THEREOF” (ABBISKO THERAPEUTICS CO., LTD., priority 2021, published 2026).

Read-outs that look alike come from different tables or passages of the source. A value given as a limit tells only on which side of the number the result lay.

One experiment deals with KRAS^G12D/cRAF (Homo sapiens, UniProt P01116, G12D). In words: KRAS G12D/cRAF binding test (Alphalisa). To be noted: His-tagged KRAS G12D + GMPPNP, GST-tagged cRAF. Here is the method:
The compound was dissolved in 100% DMSO at a starting concentration of 5 mM and diluted in DMSO with a 3-fold serial dilution method for a total of 8 concentration points. 1 μL of the compound or DMSO at each concentration point was added into 99 μL of the experimental buffer to obtain 10× stock solution.
• 1) 4 μL of the working mixture solution of His-tagged KRAS^G12D and GMPPNP was added to the 384-well plate. • 2) The 10× compound stock solution or 1% DMSO was added to the 384-well plate. • 3) The plate was centrifuged at 1000 rpm for 1 minute. • 4) 4 μL of GST-tagged cRAF solution was added to the 384-well plate. • 5) The plate was centrifuged at 1000 rpm for 1 minute. • 6) The plate was incubated at room temperature for 15 minutes. • 7) 10 μL of detection working solution was added to the 384-well plate. • 8) The plate was centrifuged at 1000 rpm for 1 minute. • 9) The plate was incubated at room temperature for 60 minutes. • 10) The 384-well plate was placed into Envision and assay data was obtained.
(§1) The ratio for each compound concentration was calculated from the signal of the DMSO control group contained in each assay plate and the Alphalisa signal in each compound well. The compound concentration required for inhibitory concentration at 50% (IC50) was determined using a four-parameter logarithmic dose-response equation by testing the concentration of the compound and the value of the ratio. The endpoint value (IC50) of the reference compound was assessed in each experiment as a quality control measure. If the endpoint value is within three times the expected value, the experiment may be considered acceptable.
Background: In Alpha technology, singlet oxygen from a donor bead excites a nearby acceptor bead.

For the next experiment, the system named is AGS cell. The experiment is described as follows: Anti-proliferative 2D CTG assay, AGS cells. The experiment is classed as cell-based. The following applies: AGS cells, incubated 3 days, CTG, read-out: AGS cell IC50. Here is the method: When the cell confluence was about 80%, the cells were isolated with 0.25% trypsin. Isolated cells were resuspended in 5 mL fresh cell culture medium and centrifuged for cell collection. Meanwhile, the number of cells was also calculated. The cells were then suspended in culture medium of medium concentration. The cells were placed into a 96-well plate with 1000 cells/well for AGS and 1000 cells/well for GP2D. The 96-well plate was placed in an incubator at 37° C. and incubated overnight.
1.2 Day 1 Compound Treatment From the 10 mM stock solution, with a ratio of 1:5, 10-point serial dilutions were performed. The 10× medium containing the compound was transferred into corresponding wells of the 96 wells. The final maximum compound concentration was […] and the final DMSO concentration was 0.1%. The 96-well plate was placed in a 37° C. incubator, the AGS cells were incubated for 3 days, and the GP2D cells were incubated for 4 days.
50 μL/well of detection reagent (CTG) was added to the AGS cells, and the signal was read in an Envision machine.
as §1, with “The percent inhibition (%) at” for “The ratio for”, “signal in” for “signal of”, “the HPE and ZPE” for “the DMSO”, “control wells and the fluorescence signal in the individual compound wells included” for “control group contained”, “assay plate. […]” for “assay plate and the Alphalisa signal in each compound well.”, “the inhibition percentage value.” for “the value of the ratio.”

The mark [1] stands for this setting: Homo sapiens, 72 h, class symbols.
The mark [2] stands for this setting: Homo sapiens, 72 h, numeric values.

By IC50 is commonly meant the midpoint of a concentration-inhibition curve.

Sequence of KRAS^G12D/cRAF (P01116 1-188 isoform P01116-2 G12D): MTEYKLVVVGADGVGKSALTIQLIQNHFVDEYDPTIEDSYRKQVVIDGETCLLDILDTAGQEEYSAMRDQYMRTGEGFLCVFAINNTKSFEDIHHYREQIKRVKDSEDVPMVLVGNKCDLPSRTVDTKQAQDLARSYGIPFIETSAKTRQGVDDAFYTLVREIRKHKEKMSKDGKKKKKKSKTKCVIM

As for `[2H]C([2H])([2H])OC[C@]12CC[C@]([2H])(CN(c3nc(OC[C@@]45CCCN4C[C@H](F)C5)nc4c(F)c(-c5cc(O)cc6ccc(F)c(C#C)c56)ncc34)C1)N2` [Example 47, 5-ethynyl-6-fluoro-4-(8-fluoro-2-(((2R,7aS)-2-fluorotetrahydro-1H-pyrrolizin-7a(5H)-yl)methoxy)-4-((1S,5R)-1-((methoxy-d3)methyl)-3,8-diazabicyclo[3.2.1]octan-3-yl-5-d)pyrido[4,3-d]pyrimidin-7-yl)naphthalen-2-ol], the IC50 on KRAS^G12D/cRAF (class symbols) and with AGS cell (setting [1]) was 50 to 500 nM throughout. Take `C#Cc1c(F)ccc2cc(O)cc(-c3ncc4c(N5C[C@H]6CC[C@@](C)(C5)N6)nc(OC[C@@]56CCCN5C[C@H](F)C6)nc4c3F)c12` [Example 44]: the IC50 at KRAS^G12D/cRAF (numeric values) came out at 19 nM; in the experiment with AGS cell (numeric values), 6.1 nM. As for `C#Cc1c(F)ccc2cc(O)cc(-c3ncc4c(N5C[C@H]6CC[C@@](/C=C/F)(C5)N6)nc(OC[C@@]56CCCN5C[C@H](F)C6)nc4c3F)c12` [Example 61, 5-ethynyl-6-fluoro-4-(8-fluoro-2-(((2R,7aS)-2-fluorotetrahydro-1H-pyrrolizin-7a(5H)-yl)methoxy)-4-((1R,5R)-1-((E)-2-fluorovinyl)-3,8-diazabicyclo[3.2.1]octan-3-yl)pyrido[4,3-d]pyrimidin-7-yl)naphthalen-2-ol], the IC50 at KRAS^G12D/cRAF (numeric values) stood at 876 nM; with AGS cell (setting [2]), 816 nM. On the same counts, the results for `C#Cc1c(F)ccc2cc(O)cc(-c3ncc4c(N5C[C@@H]6CC[C@](/C=C\F)(C5)N6)nc(OC[C@@]56CCCN5C[C@H](F)C6)nc4c3F)c12` [Example 60, 5-ethynyl-6-fluoro-4-(8-fluoro-2-(((2R,7aS)-2-fluorotetrahydro-1H-pyrrolizin-7a(5H)-yl)methoxy)-4-((1S,5S)-1-((Z)-2-fluorovinyl)-3,8-diazabicyclo[3.2.1]octan-3-yl)pyrido[4,3-d]pyrimidin-7-yl)naphthalen-2-ol] are 25 nM and 79 nM. On to `C#Cc1c(F)ccc2cc(O)cc(-c3ncc4c(N5CC6CCC(CC(=O)OC)(C5)N6)nc(OC[C@@]56CCCN5C[C@H](F)C6)nc4c3F)c12` (stereo partly drawn) [Example 34, Methyl 2-(3-(7-(8-ethynyl-7-fluoro-3-hydroxynaphthalen-1-yl)-8-fluoro-2-(((2R,7aS)-2-fluorohexahydro-1H-pyrrolizin-7a-yl)methoxy)pyrido[4,3-d]pyrimidin-4-yl)-3,8-diazabicyclo[3.2.1]octan-1-yl)acetate], for which the IC50 at KRAS^G12D/cRAF (class symbols) was under 50 nM; in the experiment on AGS cell (setting [1]), 50 to 500 nM.

On to `C#Cc1c(F)ccc2cc(O)cc(-c3ncc4c(N5CC6CCC(C(C)O)(C5)N6)nc(OC[C@@]56CCCN5C[C@H](F)C6)nc4c3F)c12` (stereo partly drawn) [Example 13, 5-ethynyl-6-fluoro-4-(8-fluoro-2-(((2R,7aS)-2-fluorotetrahydro-1H-pyrrolizin-7a(5H)-yl)methoxy)-4-(1-(1-hydroxyethyl)-3,8-diazabicyclo[3.2.1]octan-3-yl)pyrido[4,3-d]pyrimidin-7-yl) naphthalen-2-ol], for which the IC50 in the experiment on AGS cell (setting [1]) lay in the range of 50 to 500 nM.

Turning to `C#Cc1c(F)ccc2cc(O)cc(-c3ncc4c(N5CC6CCC(/C=C/F)(C5)N6)nc(OC[C@@]56CCCN5C[C@H](F)C6)nc4c3F)c12` (stereo partly drawn) [Example 28, 5-ethynyl-6-fluoro-4-(8-fluoro-2-(((2R,7aS)-2-fluorotetrahydro-1H-pyrrolizin-7a(5H)-yl)methoxy)-4-(1-((E)-2-fluorovinyl)-3,8-diazabicyclo[3.2.1]octan-3-yl)pyrido[4,3-d]pyrimidin-7-yl) naphthalen-2-ol], the IC50 on KRAS^G12D/cRAF (class symbols) is 50 to 500 nM; in the experiment with AGS cell (setting [1]) it was under 50 nM. On to `[2H]C12CCC(COC([2H])([2H])[2H])(CN(c3nc(OC[C@@]45CCCN4C[C@H](F)C5)nc4c(F)c(-c5cc(O)cc6ccc(F)c(C#C)c56)ncc34)C1)N2` (stereo partly drawn) [Example 3, 5-ethynyl-6-fluoro-4-(8-fluoro-2-(((2R,7aS)-2-fluorotetrahydro-1H-pyrrolizin-7a(5H)-yl)methoxy)-4-(1-((methoxy-d3)methyl)-3,8-diazabicyclo [3.2.1]octan-3-yl-5-d)pyrido [4,3-d]pyrimidin-7-yl)naphthalen-2-ol], for which the IC50 in the experiment on AGS cell (setting [1]) is under 50 nM. Same read-out and setting: with `C#Cc1c(F)ccc2cc(O)cc(-c3ncc4c(N5C[C@@H]6CC[C@](CCF)(C5)N6)nc(OC[C@@]56CCCN5C[C@H](F)C6)nc4c3F)c12` [Example 56, 5-ethynyl-6-fluoro-4-(8-fluoro-4-((1S,5S)-1-(2-fluoroethyl)-3,8-diazabicyclo[3.2.1]octan-3-yl)-2-(((2R,7aS)-2-fluorotetrahydro-1H-pyrrolizin-7a(5H)-yl)methoxy)pyrido[4,3-d]pyrimidin-7-yl)naphthalen-2-ol] the figure was under 50 nM.

For `C#Cc1c(F)ccc2cc(O)cc(-c3ncc4c(N5CC6CCC(/C=C\C)(C5)N6)nc(OC[C@@]56CCCN5C[C@H](F)C6)nc4c3F)c12` (stereo partly drawn) [Example 29, 5-ethynyl-6-fluoro-4-(8-fluoro-2-(((2R,7aS)-2-fluorotetrahydro-1H-pyrrolizin-7a(5H)-yl)methoxy)-4-(1-((Z)-prop-1-en-1-yl)-3,8-diazabicyclo[3.2.1]octan-3-yl)pyrido[4,3-d]pyrimidin-7-yl)naphthalen-2-ol], the IC50 is 50 to 500 nM at KRAS^G12D/cRAF (class symbols) and under 50 nM with AGS cell (setting [1]). The corresponding values for `[2H]C([2H])([2H])OC[C@@]12CC[C@@H](CN(c3nc(OC[C@@]45CCCN4C[C@H](F)C5)nc4c(F)c(-c5cc(O)cc6ccc(F)c(C#C)c56)nc(OCC)c34)C1)N2` [Example 52, 4-(5-ethoxy-8-fluoro-2-(((2R,7aS)-2-fluorotetrahydro-1H-pyrrolizin-7a(5H)-yl)methoxy)-4-((1R,5S)-1-((methoxy-d3)methyl)-3,8-diazabicyclo[3.2.1]octan-3-yl)pyrido[4,3-d]pyrimidin-7-yl)-5-ethynyl-6-fluoronaphthalen-2-ol] are 50 to 500 nM and under 50 nM. As to `C#Cc1c(F)ccc2cc(O)cc(-c3ncc4c(N5CC6CCC(/C=C\F)(C5)N6)nc(OC[C@@]56CCCN5C[C@H](F)C6)nc4c3F)c12` (stereo partly drawn) [Example 27, 5-ethynyl-6-fluoro-4-(8-fluoro-2-(((2R,7aS)-2-fluorotetrahydro-1H-pyrrolizin-7a(5H)-yl)methoxy)-4-(1-((Z)-2-fluorovinyl)-3,8-diazabicyclo[3.2.1]octan-3-yl)pyrido[4,3-d]pyrimidin-7-yl) naphthalen-2-ol], the IC50 came to 54 nM at KRAS^G12D/cRAF (numeric values) and 11 nM in the experiment on AGS cell (setting [2]).

As to `C#Cc1c(F)ccc2cc(O)cc(-c3ncc4c(N5CC6CCC(CC(F)F)(C5)N6)nc(OC[C@@]56CCCN5C[C@H](F)C6)nc4c3F)c12` (stereo partly drawn) [Example 21, 4-(4-(1-(2,2-difluoroethyl)-3,8-diazabicyclo[3.2.1]octan-3-yl)-8-fluoro-2-(((2R,7aS)-2-fluorotetrahydro-1H-pyrrolizin-7a(5H)-yl)methoxy)pyrido[4,3-d]pyrimidin-7-yl)-5-ethynyl-6-fluoronaphthalen-2-ol], the concentration for half-maximal inhibition (IC50) at KRAS^G12D/cRAF (class symbols) is 50 to 500 nM; in the experiment on AGS cell (setting [1]), under 50 nM. On to `C#Cc1c(F)ccc2cc(O)cc(-c3ncc4c(N5C[C@H]6CC[C@@](COC)(C5)N6)nc(OC[C@@]56CCCN5C[C@H](F)C6)nc4c3F)c12` [Example 45, 5-ethynyl-6-fluoro-4-(8-fluoro-2-(((2R,7aS)-2-fluorotetrahydro-1H-pyrrolizin-7a(5H)-yl)methoxy)-4-((1S,5R)-1-(methoxymethyl)-3,8-diazabicyclo[3.2.1]octan-3-yl)pyrido[4,3-d]pyrimidin-7-yl)naphthalen-2-ol], for which the IC50 at KRAS^G12D/cRAF (class symbols) was over 500 nM.

Consider `[2H]C([2H])([2H])OCC12CCC(CN(c3nc(OC[C@@]45CCCN4C[C@H](F)C5)nc4c(F)c(-c5cc(O)cc6cc(C)c(F)c(C#C)c56)ncc34)C1)N2` (stereo partly drawn) [Example 17, 5-ethynyl-6-fluoro-4-(8-fluoro-2-(((2R,7aS)-2-fluorotetrahydro-1H-pyrrolizin-7a(5H)-yl)methoxy)-4-(1-((methoxy-d3)methyl)-3,8-diazabicyclo[3.2.1]octan-3-yl)pyrido[4,3-d]pyrimidin-7-yl)-7-methylnaphthalen-2-ol], for which the IC50 in the experiment with AGS cell (setting [1]) is over 500 nM.
